The source of these data is US6110716A, “HIV integrase inhibitors” (Merck & Co., Inc., priority 1998, dated 2000).

Experiment [1] has as its target T1, HIV-1 integrase (Human immunodeficiency virus type 1 group M subtype B, UniProt P04585).
T1 construct: HIV long terminal repeat terminus by HIV-1 integrase
The experiment is described as follows: HIV Integrase Substrate Cleavage (trimming of the 3' end of HIV long terminal repeat terminus by HIV-1 integrase). It counts as biochemical. Particulars: inhibition of HIV integrase substrate cleavage; inhibitor 0.75 to 100 μM. Here is the method:
HIV Integrase Substrate Cleavage
An assay for trimming of the 3' and of HIV long terminal repeat terminus by HIV-1 integrase was conducted according to LaFemina, R. L. et al., J. Virol 10, 5624 (1991), herein incorporated by reference for these purposes. To assay inhibition of HIV integrase substrate cleavage, the reaction was conducted with inhibitor having various concentrations in the range of 0.75 to 100 μM.

Experiment [2] deals with HIV integrase (Human immunodeficiency virus type 1 group M subtype B, UniProt P04585). The experiment is described as follows: Strand Transfer Assay for HIV Integrase (microtiter assay for ligation of processed donor (HIV) DNA to unspecific, nicked host DNA). It counts as biochemical. Particulars: inhibition of strand transfer by HIV integrase; inhibitor 0.75 to 100 μM. Here is the method: Strand Transfer Assay for HIV Integrase
A microtiter assay for ligation of processed donor (HIV) DNA to unspecific, nicked host DNA was conducted according to Hazuda, D. J. et al., Nucl. Acids, Res. 22, 1121 (1994), herein incorporated by reference for these purposes. To assay inhibition of such strand transfer by HIV integrase, the reaction was conducted with inhibition having various concentrations in the range of 0.75 to 100 μM. Representative results follow.

Turning to `Cc1oc2cc3c(-c4c(O)cc(O)c5c(O)c6c(cc45)O[C@@H](C)[C@@H](C)C6=O)c(O)cc(O)c3c(O)c2c(=O)c1C` (relative stereo) [Compound D], the results for the IC50 in experiment [1] and in experiment [2] were 1 µM and 4 µM, respectively.
The like results for `CC1Oc2cc3c(-c4c(O)cc(O)c5c(O)c6c(cc45)OC(C)C(C)C6=O)c(O)cc(O)c3c(O)c2C(=O)C1C` (stereo not drawn) [Compound A] were, in that order, 2 µM and 12 µM.
Regarding `COc1cc(O)c2c(OC)c3c(cc2c1-c1c(OC)cc(OC)c2c(OC)c4c(cc12)OC(C)C(C)C4=O)OC(C)C(C)C3=O` (stereo not drawn) [Compound F], in experiment [1], the half-maximal inhibitory concentration (IC50) (in general, the midpoint of a concentration-inhibition curve) was 40 µM.
Same read-out and setting: the same measure for `COc1cc(OC)c2c(OC)c3c(cc2c1-c1c(OC)cc(OC)c2c(OC)c4c(cc12)OC(C)C(C)C4=O)OC(C)C(C)C3=O` (stereo not drawn) [Compound G]: 60 µM.
`CC1Oc2cc3c(-c4c(O)cc(O)c5c(O)c6c(cc45)OC(C)C(C)C6=O)c(O)cc(O)c3c(O)c2OC(=O)C1C` (single isomer, unassigned) [Compound C]: the IC50 worked out at 3 µM in experiment [1] and 9 µM in experiment [2].
For the compound `CC(=O)Oc1cc(OC(C)=O)c2c(OC(C)=O)c3c(cc2c1-c1c(OC(C)=O)cc(OC(C)=O)c2c(OC(C)=O)c4c(cc12)OC(C)C(C)C4=O)OC(C)C(C)C3=O` (stereo not drawn) [E], the IC50 in experiment [1] came out at 50 µM.
